From patent publication US6737383B1, “Herbicidal oxadiazolidines” (priority 1999, dated 2004)

Columns and labels:
[1] = test system: bedstraw; assay: Test B pre/postemergence bedstraw; format: in vivo, Galium aparine
Outline: (§1)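 Herbicidal effect was estimated by eye on a ten-point control scale after plants spent twelve to sixteen days in a greenhouse following soil or foliar treatment. Foliar sprays targeted plants at one to four leaves; all doses were formulated in a non-phytotoxic solvent with surfactant.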

[2] = test system: blackgrass; assay: Test B pre/postemergence blackgrass; format: in vivo, Alopecurus myosuroides
Outline: as §1

[3] = test system: surinam grass; assay: Test B pre/postemergence surinam grass; format: in vivo, Brachiaria decumbens
Outline: as §1

[4] = test system: cocklebur; assay: Test B pre/postemergence cocklebur; format: in vivo, Xanthium strumarium
Outline: as §1

[5] = test system: corn; assay: Test B pre/postemergence corn; format: in vivo, Zea mays
Outline: as §1

[6] = test system: crabgrass; assay: Test B pre/postemergence crabgrass; format: in vivo, Digitaria sanguinalis
Outline: as §1

[7] = test system: giant foxtail; assay: Test B pre/postemergence giant foxtail; format: in vivo, Setaria faberii
Outline: as §1

[8] = test system: morningglory; assay: Test B pre/postemergence morningglory; format: in vivo, Ipomoea hederacea
Outline: as §1

[9] = test system: pigweed; assay: Test B pre/postemergence pigweed; format: in vivo, Amaranthus retroflexus
Outline: as §1

[10] = test system: soybean; assay: Test B pre/postemergence soybean; format: in vivo, Glycine max
Outline: as §1

[11] = test system: sugar beet; assay: Test B pre/postemergence sugar beet; format: in vivo, Beta vulgaris
Outline: as §1

[12] = test system: wild oat; assay: Test B pre/postemergence wild oat; format: in vivo, Avena fatua
Outline: as §1

[13] = test system: purple nutsedge; assay: Test B pre/postemergence purple nutsedge; format: in vivo, Cyperus rotundus
Outline: as §1

[14] = test system: rice; assay: Test B flood test rice; format: in vivo, Oryza sativa
Outline: (§2)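 Read-out is a visual response score from 0 (no effect) to 10 (complete control), assigned by comparison with untreated controls. Treatment was applied at the 2-leaf stage, and plants stayed in the greenhouse for twelve to sixteen days before scoring.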

[15] = test system: smallflower flatsedge; assay: Test B flood test smallflower flatsedge; format: in vivo, Cyperus difformis
Outline: as §2

[16] = test system: duck salad; assay: Test B flood test duck salad; format: in vivo, Heteranthera limosa
Outline: as §2

[17] = Postemergence, Rate 62 g/ha, scale 0 to 10, 0 is no effect, 10 is complete control
[18] = Postemergence, Rate 250 g/ha, scale 0 to 10, 0 no effect, 10 complete control
[19] = Preemergence, Rate 62 g/ha, scale 0 to 10 (0 no effect, 10 complete control)
[20] = Preemergence, Rate 125 g/ha, scale 0 to 10 (0 no effect, 10 complete control)
[21] = Preemergence, Rate 250 g/ha, scale of 0 to 10 where 0 is no effect and 10 is complete control
[22] = Preemergence, Rate 500 g/ha, scale 0 (no effect) to 10 (complete control)
[23] = Rate 125 g/ha, Postemergence, scale 0 to 10, 0 no effect, 10 complete control
[24] = Rate 500 g/ha, Postemergence, scale 0 to 10, 0 no effect, 10 complete control
[25] = Rate 125 g/ha, Postemergence section (flood test species), scale 0 to 10, 0 no effect, 10 complete control
[26] = Rate 250 g/ha, headed Pre-emergence (flood test species), scale 0 to 10 (0 no effect, 10 complete control)
[27] = Rate 500 g/ha, headed Pre-emergence (flood test species), scale 0 to 10 (0 no effect, 10 complete control)
[28] = Rate 500 g/ha, listed under Postemergence (flood test species), scale 0 to 10, 0 no effect, 10 complete control
[29] = Rate 1000 g/ha, Pre-emergence (as headed), scale 0 to 10
[30] = Rate 2000 g/ha, Pre-emergence (as headed), scale 0 to 10
[31] = flood test, listed under Postemergence, Rate 250 g/ha, scale 0 to 10, 0 no effect, 10 complete control

CC(C)N(C(=O)n1oc(=O)n(Cc2cccs2)c1=O)c1ccc(F)cc1F [Compound 86]
2: Bedstraw plant response rating [1, 17] | Blackgrass plant response rating [2, 19] | Plant response rating, B. signalgrass [3, 20] | Cocklebur plant response rating [4, 18] | Cocklebur plant response rating [4, 24] | Crabgrass plant response rating [6, 17] | Giant foxtail plant response rating [7, 23] | Redroot pigweed plant response rating [9, 19] | Soybean plant response rating [10, 17] | Soybean plant response rating [10, 18] | Soybean plant response rating [10, 23]
4: Bedstraw plant response rating [1, 23] | Plant response rating, B. signalgrass [3, 21] | Morningglory plant response rating [8, 17] | Plant response rating, Redroot pigweed [9, 20] | Plant response rating, Wild oats [12, 21]
6: Bedstraw plant response rating [1, 18] | Sugarbeets plant response rating [11, 24]
9: Crabgrass plant response rating [6, 24] | Plant response rating, Giant foxtail [7, 20]
0: Bedstraw plant response rating [1, 19] | Plant response rating, Bedstraw [1, 20] | Plant response rating, Bedstraw [1, 21] | Bedstraw plant response rating [1, 22] | Blackgrass plant response rating [2, 17] | Blackgrass plant response rating [2, 23] | B. signalgrass plant response rating [3, 17] | B. signalgrass plant response rating [3, 18] | B. signalgrass plant response rating [3, 19] | B. signalgrass plant response rating [3, 23] | B. signalgrass plant response rating ([3]; Rate 500 g/ha, Postemergence, scale of 0 to 10 where 0 is no effect and 10 is complete control) | Cocklebur plant response rating [4, 17] | Cocklebur plant response rating [4, 19] | Plant response rating, Cocklebur [4, 20] | Plant response rating, Cocklebur [4, 21] | Cocklebur plant response rating [4, 22] | Corn plant response rating [5, 17] | Corn plant response rating [5, 19] | Plant response rating, Corn [5, 20] | Plant response rating, Corn [5, 21] | Corn plant response rating [5, 22] | Corn plant response rating [5, 23] | Corn plant response rating [5, 24] | Giant foxtail plant response rating [7, 17] | Morningglory plant response rating [8, 19] | Plant response rating, Morningglory [8, 20] | Plant response rating, Morningglory [8, 21] | Morningglory plant response rating [8, 22] | Redroot pigweed plant response rating [9, 17] | Redroot pigweed plant response rating [9, 23] | Soybean plant response rating [10, 19] | Plant response rating, Soybean [10, 20] | Plant response rating, Soybean [10, 21] | Soybean plant response rating [10, 22] | Sugarbeets plant response rating [11, 17] | Sugarbeets plant response rating [11, 19] | Plant response rating, Sugarbeets [11, 20] | Wild oats plant response rating [12, 17] | Wild oats plant response rating [12, 18] | Wild oats plant response rating [12, 19] | Plant response rating, Wild oats [12, 20] | Wild oats plant response rating [12, 23] | Wild oats plant response rating [12, 24] | Nutsedge plant response rating [13, 17] | Nutsedge plant response rating [13, 18] | Nutsedge plant response rating [13, 19] | Plant response rating, Nutsedge [13, 20] | Plant response rating, Nutsedge [13, 21] | Nutsedge plant response rating [13, 22] | Nutsedge plant response rating [13, 23] | Nutsedge plant response rating [13, 24] | Rice plant response rating [14, 17] | Rice plant response rating [14, 25] | Rice plant response rating [14, 26] | Plant response rating, Rice [14, 27] | Rice plant response rating [14, 28] | Rice plant response rating [14, 29] | Rice plant response rating [14, 31] | S. Flatsedge plant response rating [15, 17] | S. Flatsedge plant response rating ([15]; Pre-emergence, Rate 1000 g/ha, scale 0 to 10 (0 no effect, 10 complete control)) | S. Flatsedge plant response rating [15, 25] | S. Flatsedge plant response rating [15, 26] | Plant response rating, S. Flatsedge [15, 27] | S. Flatsedge plant response rating [15, 28] | S. Flatsedge plant response rating [15, 30] | S. Flatsedge plant response rating [15, 31] | Ducksalad plant response rating [16, 17] | Ducksalad plant response rating [16, 25] | Ducksalad plant response rating [16, 26] | Plant response rating, Ducksalad [16, 27] | Ducksalad plant response rating [16, 28] | Ducksalad plant response rating [16, 29] | Ducksalad plant response rating [16, 30] | Ducksalad plant response rating [16, 31]
00: Corn plant response rating [5, 18]
7: B. signalgrass plant response rating [3, 22] | Morningglory plant response rating [8, 18] | Morningglory plant response rating [8, 23] | Redroot pigweed plant response rating [9, 24]
8: Bedstraw plant response rating [1, 24] | Blackgrass plant response rating [2, 22] | Plant response rating, Crabgrass [6, 20] | Giant foxtail plant response rating [7, 19] | Morningglory plant response rating [8, 24] | Plant response rating, Redroot pigweed [9, 21] | Redroot pigweed plant response rating [9, 22] | Rice plant response rating [14, 30]
10: Plant response rating, Crabgrass [6, 21] | Crabgrass plant response rating [6, 22] | Plant response rating, Giant foxtail [7, 21] | Giant foxtail plant response rating [7, 22]
1: Blackgrass plant response rating [2, 18] | Cocklebur plant response rating [4, 23]
3: Plant response rating, Blackgrass [2, 20] | Blackgrass plant response rating [2, 24] | Crabgrass plant response rating [6, 23] | Giant foxtail plant response rating [7, 18] | Soybean plant response rating [10, 24] | Sugarbeets plant response rating [11, 18] | Plant response rating, Sugarbeets [11, 21] | Sugarbeets plant response rating [11, 22] | Sugarbeets plant response rating [11, 23]
5: Plant response rating, Blackgrass [2, 21] | Crabgrass plant response rating [6, 18] | Crabgrass plant response rating [6, 19] | Giant foxtail plant response rating [7, 24] | Redroot pigweed plant response rating [9, 18] | Wild oats plant response rating [12, 22]
